According to patent publication US7728146B2, “Enzyme inhibitors” (Probiodrug AG, priority 2006, dated 2010):
Like-named read-outs stand apart in the source and are kept apart here.

Tests used:
[1] = Bioavailability studies (pharmacokinetics after oral and intraarterial administration); assay type: in vivo, rat; details: for AUC / AUC(0-inf) / AUC(0-t) / Cmax / Tmax / AUC/Dose / half-life: male Wistar rats; for AUC: cross-over design; for AUC(0-inf) / AUC(0-t) / Cmax / Tmax / AUC/Dose / half-life: hydrochloride salt, Mean ± SD; for bioavailability: calculated from Mean AUC p.o. / Mean AUC i.a., read-out: F (bioavailability)
Protocol: Male Wistar rats (N=25; Crl:WI) with a body weight ranging between 300 and 350 g were purchased from Harlan Winkelmann GmbH (Borchen, Germany).
All studycompounds were used in the form of the hydrochloride salt.
One week after adaptation to the housing conditions, catheters were implanted into the carotid artery of the rats under general anaesthesia (i.p. injection of 0.25 mL/kg b.w. Rompun® [2%], BayerVital, Germany and 0.5 mL/kg b.w. Ketamin 10, Atarost GmbH & Co., Twistringen, Germany). The animals were allowed to recover for one week. The catheters were flushed with heparin-saline (100 IU/mL) three times per week.
After overnight fast, the inhibitors were administered the oral route via a feeding tube (15 g, 75 mm; Fine Science Tools, Heidelberg, Germany) and the intraarterial route via the arterial catheter. In case of intraarterial administration, the catheter was immediately flushed with 30 μL saline.
The animals were treated by a single oral dose of 3 mg/kg (5 mL/kg b.w.; treatment A) followed by a wash-out period of at least 3 days before intraarterial administration of 3 mg/kg (2 mL/kg b.w.; treatment B). The compounds were dissolved in saline to a final concentration adequate for an application of 3 mg/kg b.w.
Heparinized blood samples of 170 μL were collected in ice cooled sample tubes at −5, 0 (before medication) and at 5, 15, 30, 45, 60, 120, 240, 360 and 480 min. Blood samples in sample tubes were put shortly on ice and centrifuged thereafter (12,000 rpm for 2 min).
Plasma levels of the DP IV inhibitors were determined by measurement of plasma DP IV activity under standardized conditions using Gly-Pro-pNA as substrate. Plasma levels were calculated from the degree of inhibition using the known inhibition constants and the equation for competitive inhibition.
For determination of plasma DP IV activity, 50 μL sample in an appropriate dilution were incubated with 100 μL Hepes buffer (0.102 M, pH 7.6, I=0.319 M by KCl) and 50 μL water in a 96 well plate. Reaction was started by addition of 50 μL of a 2 mM Gly-Pro-pNA solution. Release of pNA was monitored for 20 min at 30° C. and 405 nm using a GeniousPro plate reader (Tecan). DP IV activity (deltaAbsorbtion/min) was calculated by linear regression of the time response curve. From this activity the concentration of the inhibitor was calculated using the following equation derived from the inhibitor equation for competitive inhibition.
Pharmacokinetic analyses (parameters of the individual PK profiles) and descriptive statistics were carried out using WinNonlin (Version 4.0.1, Professional). Based on plasma concentration data of inhibitors, the following model-independent pharmacokinetic variables were determined:
AUC(0-inf), AUC(0-t), Cmax, tmax, terminal half-life (t1/2) and bioavailability (F).
F (in %) was calculated from the ratio of observed AUC upon oral route of administration to the AUC upon intraarterial administration.

male Sprague Dawley rats = test: Circadian courses of activity, feeding and drinking behaviour; body weight, food and fluid consumption during chronic administration; assay type: in vivo, rat; details: vs vehicle
Protocol: Example 130b as hydrochloride salt was dissolved in tap water in concentrations of 0.03, 0.1 and 0.3 mg/ml. Assuming a daily fluid intake of approx. 30 ml per animal (animal's weight: approx. 300 g), these concentrations should result in doses of approx. 3, 10 and 30 mg/kg/day. The solutions were prepared freshly every day. During chronic administration, solution offer was limited to 40 ml per day for each animal.
Imipramine was dissolved 0.5% Natrosol and administered once daily i.p. for 8 days (test group TG 11, see below) with a dose of 15 mg/kg/day in a volume of 1 ml/kg.
216 male Sprague Dawley rats. The animals were 6 weeks old at the start of the study. They were housed in groups of 4 animals (“acute animals”) or in single cages (“chronic animals”) at 12 h/12 h light/dark (start of the light phase at 2 a.m.), 20° C., 60% rH. Animals were provided by Elevage Janvier, France.
During the 7 days lasting period of chronic compound administration, animals were kept singly. On the first day they were kept in single Macrolon home cages. On the next day they were transferred to activity monitoring cages and kept there for 3 days. For the following 3 days they returned to their home cages (single housing).
Animals received the test compound chronically via the drinking fluid. The reference compound Imipramine was given i.p. (one administration per day, one hour before the respective tests). Fluid supply was restricted to 40 ml per day for all test groups. On the first day of chronic test compound exposure, animals were kept singly in standard single home cages to enable an individual assessment of test compound intake. On the second day, animals were transferred to infrared monitoring cages for 3 days. Food and fluid offer were the same as in the home cage. Measuring rearing activity near fluid bottles and food grid enabled an assessment of the time structure of food and water (compound) consumption. Behavioural observation started one hour before the beginning of the dark phase (2 p.m.). After 22 hours, body weight, food and fluid consumption were measured. 2 hours later, the next recording started.
Raw data were provided as computer files accompanied by written protocol sheets. As the animals were still adapting to the environment and administration the time courses of the following parameters were calculated only for the last day of registration: • Food and fluid intake (time %) • Number of feeding and […] bouts • Meal pattern parameters reflecting e.g. the duration and recurrence of feeding and drinking bouts • Total distance travelled (cm/min) • Small movements (cm/min) • Distance travelled with rapid locomotion (cm/min) • Distance travelled with slow locomotion (cm/min) • Immobility (time %) • Use of available space (%) • Locomotor stereotypies (score, first hour of the dark phase only) • Rearing (time %) • Number of rearing acts (N) Feeding and Drinking Bouts and Bout-Related Analysis:
On the basis of high-resolution infrared beam recordings, feeding and drinking is identified by means of beam interruption in the upper frame near to the positions of food or water. Feeding or drinking acts are then defined as temporally contingent behavioural pattern separated from each other by intervals not longer than 0.5 seconds. Normally, several acts form a feeding or drinking bout. The intervals within a bout are definitely shorter than between subsequent bouts. A threshold interval can be set to distinguish between intra-bout and inter-bout intervals.
Stereotyped locomotion was assessed by means of statistical comparisons between the observed locomotor sequences (as described by the movement from one of the 4×4 subsquares to another) and a “random walk”. The comparison is performed at 5 different levels:
The coefficient of locomotor stereotypies (SC, in %) at each level has a value of SC=0 when there are no regularities within the movement pattern (random walk). […]

[2] = Wistar (Crl:WI), rat, plasma, po, 3 mg/kg p.o., read-out: Mean AUC p.o.
[3] = Wistar (Crl:WI), rat, plasma, 3 mg/kg i.a., read-out: Mean AUC i.a.
[4] = Wistar (Crl:WI), rat, plasma, intraarterial 3 mg/kg, N = 4-6
[5] = Wistar (Crl:WI), rat, plasma, oral 3 mg/kg, N = 5
[6] = male, Wistar (Crl:WI), rat, plasma, 3 mg/kg, intraarterial 3 mg/kg, N = 4-6, read-out: Half-life (converted)
[7] = male, Wistar (Crl:WI), rat, plasma, po, 3 mg/kg, oral 3 mg/kg, N = 5, read-out: Half-life (converted)
[8] = male, Wistar (Crl:WI), rat, plasma, po, 3 mg/kg
[9] = circadian registration, Imipramine 15 mg/kg/day i.p., Example 130b approx. 3, 10, 30 mg/kg/day
[10] = Imipramine 15 mg/kg/day i.p., Example 130b hydrochloride approx. 3, 10, 30 mg/kg/day via drinking fluid

## NCc1c(-c2ccc(Cl)cc2Cl)ncn1Cc1ccccc1 [Example 24b, (1-benzyl-4-(2,4-dichlorophenyl)-1H-imidazol-5-yl)methanamine]
[1]; [2]
  AUC: 390 ng·h/mL
[1]; [3]
  AUC: 510 ng·h/mL
[1]; [4]
  AUC(0-inf): 640 ± 205 ng·h/mL
  AUC(0-t): 510 ± 151 ng·h/mL
  Cmax: 440 ± 73 ng/mL
[1]; [5]
  AUC(0-inf): 650 ± 314 ng·h/mL
  AUC(0-t): 390 ± 149 ng·h/mL
  Cmax: 130 ± 36 ng/mL
  Tmax: 0.75 ± 0.177 h
[1]; intraarterial 3 mg/kg, N = 4-6
  AUC/Dose: 0.18 ± 0.093 kg·µg·h/mL/mg
[1]; oral 3 mg/kg, N = 5
  AUC/Dose: 0.22 ± 0.105 kg·µg·h/mL/mg
[1]; [6]
  half-life: 2.94 ± 1.39 h
[1]; [7]
  half-life: 4.83 ± 4.08 h
[1]; [8]
  bioavailability: 76%

## NCc1c(-c2ccc(Cl)cc2Cl)ncn1Cc1ccccn1 [Example 39b]
[1]; [2]
  AUC: 140 ng·h/mL
[1]; [3]
  AUC: 330 ng·h/mL
[1]; [4]
  AUC(0-inf): 410 ± 191 ng·h/mL
  AUC(0-t): 330 ± 148 ng·h/mL
  Cmax: 280 ± 51 ng/mL
[1]; [5]
  AUC(0-inf): 290 ± 141 ng·h/mL
  AUC(0-t): 140 ± 75 ng·h/mL
  Cmax: 80 ng/mL
  Tmax: 0.4 ± 0.224 h
[1]; intraarterial 3 mg/kg, N = 4-6
  half-life: 1.57 ± 1.138 h
[1]; oral 3 mg/kg, N = 5
  AUC/Dose: 0.10 ± 0.047 kg·µg·h/mL/mg
[1]; [6]
  half-life: 1.6 h
[1]; [7]
  half-life: 3.18 ± 2.13 h
[1]; [8]
  bioavailability: 43%

## NCc1c(-c2ccc(Cl)cc2Cl)ncn1Cc1cccnc1 [Example 121b, (4-(2,4-dichlorophenyl)-1-((pyridin-3-yl)methyl)-1H-imidazol-5-yl)methanamine]
[1]; [2]
  AUC: 230 ng·h/mL
[1]; [3]
  AUC: 440 ng·h/mL
[1]; [4]
  AUC(0-inf): 630 ± 350 ng·h/mL
  AUC(0-t): 440 ± 215 ng·h/mL
  Cmax: 400 ± 120 ng/mL
[1]; [5]
  AUC(0-inf): 350 ± 207 ng·h/mL
  AUC(0-t): 230 ± 206 ng·h/mL
  Cmax: 110 ± 51 ng/mL
  Tmax: 0.45 ± 0.274 h
[1]; intraarterial 3 mg/kg, N = 4-6
  AUC/Dose: 0.21 ± 0.115 kg·µg·h/mL/mg
[1]; oral 3 mg/kg, N = 5
  AUC/Dose: 0.12 ± 0.069 kg·µg·h/mL/mg
[1]; [6]
  half-life: 1.98 ± 0.994 h
[1]; [7]
  half-life: 3.26 ± 3.87 h
[1]; [8]
  bioavailability: 53%

## NCc1c(-c2ccc(Cl)cc2Cl)ncn1Cc1ccsc1 [Example 130b, (4-(2,4-dichlorophenyl)-1-((thiophen-3-yl)methyl)-1H-imidazol-5-yl)methanamine]
Male Sprague Dawley rats; 22 hours of measurement, Example 130b approx. 3, 10, 30 mg/kg/day
  cumulated number of drinking bouts: dose-dependently reached a lower total number
Male Sprague Dawley rats; [9]
  horizontal and vertical (locomotor) activity: no statistically significant effects
  time accessing food and water (fluid): did not differ
Male Sprague Dawley rats; first hour of the dark phase, Imipramine: level 2, 3 and 4 stereotypies, Example 130b: usage of available space or stereotypy index
  locomotor stereotypies (stereotypy index): no statistically significant effects
Male Sprague Dawley rats; [10]
  body weight (gain): not affected
  fluid intake: dose-dependently led to a reduction
  food intake: not affected
[1]; [2]
  AUC: 1270 ng·h/mL
[1]; [3]
  AUC: 1680 ng·h/mL
[1]; [4]
  AUC(0-inf): 2470 ± 1440 ng·h/mL
  AUC(0-t): 1680 ± 516 ng·h/mL
  Cmax: 1160 ± 470 ng/mL
[1]; [5]
  AUC(0-inf): 2330 ± 1180 ng·h/mL
  AUC(0-t): 1270 ± 618 ng·h/mL
  Cmax: 300 ng/mL
  Tmax: 0.55 ± 0.326 h
[1]; intraarterial 3 mg/kg, N = 4-6
  half-life: 4.00 ± 2.308 h
[1]; oral 3 mg/kg, N = 5
  AUC/Dose: 0.78 ± 0.394 kg·µg·h/mL/mg
[1]; [6]
  half-life: 5.5 h
[1]; [7]
  half-life: 5.49 ± 1.52 h
[1]; [8]
  bioavailability: 76%
